Measurements from patent US20100144853A1, “NOVEL COMBINED ADMINISTRATION” (priority 2008, published 2010).

Test: Stability of COMPOUND A in human intestinal fluids, Procedure F (suspension, no separation of excess), first table
Format: in vitro ADME
Conditions: summary of Example 5
Description: Fasted Intestinal Fluids: the fluids from 4 different subjects were collected with a naso-jejunal tube after fasting overnight and pooled.
Procedure F (COMPOUND A and COMPOUND B in suspension, the degradation immediately stopped without separation of excess compound): Stock K=COMPOUND B suspension (0.5 mg/mL)
Dilute 1 part of COMPOUND B suspension (stock J) with 3 parts of FeSSIF pH6.5 solution.
500 μL of freshly thawed intestinal fluids (fasted and stimulated state) were added to 1.2 mg of COMPOUND A in a 1 mL glass vial. The suspended compound was stirred for 15 min at 37° C. to obtain wetting and a homogenous suspension. In parallel, 4 glass vials were prepared with 20 μL of a COMPOUND B suspension at different concentrations. These concentrations were obtained by mixing FeSSIF pH6.5 and COMPOUND B suspension (stock K) in different ratios, respectively 1:[…], 1:1, 0:1 to obtain 0, 1, 2 and 4% related to COMPOUND A. At time zero, 100 μL of COMPOUND A suspension preincubated at 37° C. were added to the 20 μL COMPOUND B suspension. The mixture was incubated at 37° C. with gentle stirring. After 15 min and 60 min, the reaction was stopped by mixing a 50 μL sample with 150 μL isopropanol and centrifuged at 5′000 rpm during 5 min. The clear supernatant was analyzed for the hydrolysis product and its oxidized form by HPLC.

CCCCCCCCCCC[C@@H](C[C@@H]1OC(=O)[C@H]1CCCCCC)OC(=O)[C@H](CC(C)C)NC=O [COMPOUND B, 1-(3-hexyl-4-oxo-oxetan-2-yl)tridecan-2-yl 2-formyl-amino-4-methyl-pentanoate, reference compound]
Effect of COMPOUND B on gastrointestinal enzyme induced hydrolytic degradation of COMPOUND A: efficiently prevents gastrointestinal enzyme induced hydrolytic degradation of COMPOUND A
